From ChEMBL document CHEMBL1150336, “Synthesis and antibacterial activity of novel pyrido[1,2,3-de][1,4]benzoxazine-6-carboxylic acid derivatives carrying the 3-cyclopropylaminomethyl-4-substituted-1-pyrrolidinyl group as a C-10 substituent” (J Med Chem, 2008)
≈ marks a conversion by molar mass, not a printed value.

Columns and labels:
Enterococcus faecalis [1] = experiment: Antibacterial activity against vancomycin-resistant Enterococcus faecalis KU1866 after 18 hrs by agar dilution method; assay type: functional
Enterococcus faecalis [2] = experiment: Antibacterial activity against Enterococcus faecalis IID682 after 18 hrs by agar dilution method; assay type: functional
Enterococcus faecalis [3] = experiment: Antibacterial activity against vancomycin-resistant Enterococcus faecalis KU1856 after 18 hrs by agar dilution method; assay type: functional
Pseudomonas aeruginosa = experiment: Antibacterial activity against Pseudomonas aeruginosa IID1210 after 18 hrs by agar dilution method; assay type: functional
Streptococcus pneumoniae [4] = experiment: Antibacterial activity against Streptococcus pneumoniae type 3 after 18 hrs by agar dilution method; assay type: functional
Staphylococcus aureus [5] = experiment: Antibacterial activity against quinoline-resistant Staphylococcus aureus OITI MR1-1002 isolate after 18 hrs by agar dilution method; assay type: functional
Staphylococcus aureus [6] = experiment: Antibacterial activity against Staphylococcus aureus Smith after 18 hrs by agar dilution method; assay type: functional
Escherichia coli = experiment: Antibacterial activity against Escherichia coli NIHJ JC2 after 18 hrs by agar dilution method; assay type: functional; conditions: NIHJ JC2, 18 h
Streptococcus pneumoniae [7] = experiment: Antibacterial activity against quinoline-resistant Streptococcus pneumoniae no.55 isolate after 18 hrs by agar dilution method; assay type: functional
Enterococcus faecalis [8] = experiment: Antibacterial activity against quinoline-resistant Enterococcus faecalis No.15 isolate after 18 hrs by agar dilution method; assay type: functional
Streptococcus pyogenes = experiment: Antibacterial activity against Streptococcus pyogenes IID692 after 18 hrs by agar dilution method; assay type: functional
Klebsiella pneumoniae = experiment: Antibacterial activity against Klebsiella pneumoniae IID5209 after 18 hrs by agar dilution method; assay type: functional
Haemophilus influenzae = experiment: Antibacterial activity against Haemophilus influenzae IID983 after 18 hrs by agar dilution method; assay type: functional
Mus musculus [9] = experiment: Toxicity in intracerebroventricularly dosed ICR mouse assessed as induction of convulsion after 2 hrs in absence of fenbufen; assay type: organism-based; conditions: in vivo, icv_or_intrathecal
Mus musculus [10] = experiment: Toxicity in intracerebroventricularly dosed ICR mouse assessed as induction of convulsion after 2 hrs in presence of fenbufen; assay type: organism-based; conditions: in vivo, icv_or_intrathecal
Mus musculus [11] = experiment: Toxicity in ICR mouse assessed as mortality administered as single dose at 100 mg/kg, iv after 7 days; assay type: organism-based; parameters: dose 100 mg/kg, route intravenous; conditions: in vivo, 168 h
Mus musculus [12] = experiment: Toxicity in ICR mouse assessed as mortality administered as single dose at 200 mg/kg, iv after 7 days; assay type: organism-based; parameters: dose 200 mg/kg, route intravenous; conditions: in vivo, 168 h
Mus musculus [13] = experiment: Phototoxicity in orally dosed ICR mouse assessed as skin erythema after 72 hrs; assay type: organism-based; conditions: in vivo, po

Compound | MIC (Enterococcus faecalis [1]) [µg/mL] | MIC (Enterococcus faecalis [2]) [µg/mL] | MIC (Enterococcus faecalis [3]) [µg/mL] | MIC (Pseudomonas aeruginosa) [µg/mL] | MIC (Streptococcus pneumoniae [4]) [µg/mL] | MIC (Staphylococcus aureus [5]) [µg/mL] | MIC (Staphylococcus aureus [6]) [µg/mL] | MIC (Escherichia coli) [µg/mL] | MIC (Streptococcus pneumoniae [7]) [µg/mL] | MIC (Enterococcus faecalis [8]) [µg/mL] | MIC (Streptococcus pyogenes) [µg/mL] | MIC (Klebsiella pneumoniae) [µg/mL] | MIC (Haemophilus influenzae) [µg/mL] | Activity (Mus musculus [9]) [µg] | Activity (Mus musculus [10]) [µg] | Activity (Mus musculus [11]) | Activity (Mus musculus [12]) | Activity (Mus musculus [13])
CCNCC1CCN(c2c(F)cc3c(=O)c(C(=O)O)cn4c3c2OC[C@@H]4C)C1 (some centres undefined) | 16 (≈ 41.1 µM) | 0.25 (≈ 0.642 µM) | 16 (≈ 41.1 µM) | 4 (≈ 10.3 µM) | 0.063 (≈ 0.162 µM) | 32 (≈ 82.2 µM) | 0.125 (≈ 0.321 µM) | 0.031 (≈ 0.0796 µM) | 2 (≈ 5.14 µM) | 32 (≈ 82.2 µM) | 0.063 (≈ 0.162 µM) |  |  |  |  |  |  | 
C[C@H]1COc2c(N3C[C@H](CNC4CC4)[C@@H](F)C3)c(F)cc3c(=O)c(C(=O)O)cn1c23 | 4 (≈ 9.54 µM) | 0.125 (≈ 0.298 µM) | 2 (≈ 4.77 µM) | 4 (≈ 9.54 µM) | 0.063 (≈ 0.15 µM) | 16 (≈ 38.1 µM) | 0.016 (≈ 0.0381 µM) | 0.016 (≈ 0.0381 µM) | 2 (≈ 4.77 µM) | 4 (≈ 9.54 µM) | 0.125 (≈ 0.298 µM) | 0.125 (≈ 0.298 µM) | 0.008 (≈ 0.0191 µM) |  |  |  |  | 
C[C@@H]1CN(c2c(F)cc3c(=O)c(C(=O)O)cn4c3c2OC[C@@H]4C)C[C@@H]1CNC1CC1 | 1 (≈ 2.41 µM) | 0.063 (≈ 0.152 µM) | 1 (≈ 2.41 µM) | 2 (≈ 4.81 µM) | 0.016 (≈ 0.0385 µM) | 0.5 (≈ 1.2 µM) | 0.008 (≈ 0.0193 µM) | 0.016 (≈ 0.0385 µM) | 0.125 (≈ 0.301 µM) | 1 (≈ 2.41 µM) | 0.016 (≈ 0.0385 µM) | 0.063 (≈ 0.152 µM) | 0.004 (≈ 0.00963 µM) | > 40 | > 40 | Toxic |  | 
C[C@H]1COc2c(N3C[C@H](CNC4CC4)[C@H](F)C3)c(F)cc3c(=O)c(C(=O)O)cn1c23 | 0.5 (≈ 1.19 µM) | 0.063 (≈ 0.15 µM) | 0.5 (≈ 1.19 µM) | 2 (≈ 4.77 µM) | 0.016 (≈ 0.0381 µM) | 1 (≈ 2.38 µM) | 0.008 (≈ 0.0191 µM) | 0.008 (≈ 0.0191 µM) | 0.125 (≈ 0.298 µM) | 0.5 (≈ 1.19 µM) | 0.031 (≈ 0.0739 µM) | 0.031 (≈ 0.0739 µM) | 0.004 (≈ 0.00954 µM) | > 40 | > 40 | Non-toxic | Non-toxic | 
O=C(O)c1cn2c3c(c(N4C[C@H](CNC5CC5)[C@@H](F)C4)c(F)cc3c1=O)OC[C@@H]2CF | 4 (≈ 9.14 µM) | 0.125 (≈ 0.286 µM) | 2 (≈ 4.57 µM) | 4 (≈ 9.14 µM) | 0.063 (≈ 0.144 µM) | 16 (≈ 36.6 µM) | 0.016 (≈ 0.0366 µM) | 0.031 (≈ 0.0709 µM) | 2 (≈ 4.57 µM) | 4 (≈ 9.14 µM) | 0.125 (≈ 0.286 µM) | 0.125 (≈ 0.286 µM) | 0.008 (≈ 0.0183 µM) |  |  |  |  | 
O=C(O)c1cn2c3c(c(N4CC[C@@H](CNC5CC5)C4)c(F)cc3c1=O)OC[C@@H]2CF | 0.5 (≈ 1.19 µM) | 0.063 (≈ 0.15 µM) | 0.5 (≈ 1.19 µM) | 2 (≈ 4.77 µM) | 0.016 (≈ 0.0381 µM) | 2 (≈ 4.77 µM) | 0.008 (≈ 0.0191 µM) | 0.004 (≈ 0.00954 µM) | 0.25 (≈ 0.596 µM) | 1 (≈ 2.38 µM) | 0.031 (≈ 0.0739 µM) | 0.031 (≈ 0.0739 µM) | 0.004 (≈ 0.00954 µM) | 10 | 10 | Non-toxic |  | Non-toxic
C[C@H]1COc2c(N3CC[C@@H](CNC4CC4)C3)c(F)cc3c(=O)c(C(=O)O)cn1c23 | 0.5 (≈ 1.25 µM) | 0.063 (≈ 0.157 µM) | 0.5 (≈ 1.25 µM) | 2 (≈ 4.98 µM) | 0.016 (≈ 0.0399 µM) | 2 (≈ 4.98 µM) | 0.008 (≈ 0.0199 µM) | 0.008 (≈ 0.0199 µM) | 0.25 (≈ 0.623 µM) | 1 (≈ 2.49 µM) | 0.016 (≈ 0.0399 µM) | 0.063 (≈ 0.157 µM) | 0.016 (≈ 0.0399 µM) | 20 | 20 | Non-toxic | Toxic | 
C[C@H]1CN(c2c(F)cc3c(=O)c(C(=O)O)cn4c3c2OC[C@@H]4C)C[C@@H]1CNC1CC1 | 1 (≈ 2.41 µM) | 0.031 (≈ 0.0746 µM) | 1 (≈ 2.41 µM) | 4 (≈ 9.63 µM) | 0.016 (≈ 0.0385 µM) | 2 (≈ 4.81 µM) | 0.002 (≈ 0.00481 µM) | 0.016 (≈ 0.0385 µM) | 0.5 (≈ 1.2 µM) | 1 (≈ 2.41 µM) | 0.016 (≈ 0.0385 µM) | 0.125 (≈ 0.301 µM) | 0.008 (≈ 0.0193 µM) | > 40 | > 40 | Non-toxic | Toxic | 
O=C(O)c1cn(C2CC2)c2cc(N3CCNCC3)c(F)cc2c1=O [CIPROFLOXACIN] | 64 (≈ 193 µM) | 0.5 (≈ 1.51 µM) | 64 (≈ 193 µM) |  |  | 64 (≈ 193 µM) | 0.25 (≈ 0.754 µM) | ≤ 0.001 | 64 (≈ 193 µM) | 64 (≈ 193 µM) | 0.5 (≈ 1.51 µM) | 0.004 (≈ 0.0121 µM) | 0.008 (≈ 0.0241 µM) |  |  |  |  | 
C[C@H]1CN(c2c(F)cc3c(=O)c(C(=O)O)cn4c3c2OC[C@@H]4CF)C[C@@H]1CNC1CC1 | 1 (≈ 2.31 µM) | 0.063 (≈ 0.145 µM) | 1 (≈ 2.31 µM) | 4 (≈ 9.23 µM) | 0.031 (≈ 0.0715 µM) | 2 (≈ 4.61 µM) | 0.008 (≈ 0.0185 µM) | 0.016 (≈ 0.0369 µM) | 0.5 (≈ 1.15 µM) | 1 (≈ 2.31 µM) | 0.031 (≈ 0.0715 µM) | 0.125 (≈ 0.288 µM) | 0.008 (≈ 0.0185 µM) | 40 | 20 | Non-toxic |  | Non-toxic
